pIC50: −log10 of the molar value.

The values below come from patent US20240368131A1, “OXOINDOLINYL AMIDE DERIVATIVES FOR INHIBITING NLRP3 AND USES THEREOF” (VENTUS THERAPEUTICS U.S. INC., priority 2022, published 2024).

This assay concerns the target human NLRP3 (Homo sapiens, UniProt Q96P20). The assay is described as follows: Human PBMC NLRP3 Assay (IL-1β release). The class given is cell-based. Set-up: Human PBMCs (Normal): iXCells Cat #10HU-003; host or cells: human PBMCs (normal donors), LPS-primed, nigericin-stimulated. The note with it: human PBMCs. How it is done:
Reagents: Human PBMCs (Normal): iXCells Cat #10HU-003; RPMI 1640 medium (ATCC modification): ThermoFisher Cat #A1049101 (Complete Media: 10% FBS, 1% Pen/Strep; Assay Media: 1% Pen/Strep; 75 cm^2 cell culture flask: Corning Cat #430641U; 96-well cell culture plates: VWR Cat #10062-900; LPS (E. coli 026:B6): Sigma Cat #L2654, stock 5 mg/mL in PBS; Nigericin sodium salt: Sigma Cat #N7143, stock 5 mg/mL (6.7 mM) in ethanol.
Cryopreserved PBMCs (10×10^6 cells/vial) were rapidly thawed in a 37° C. water bath for 2 min and transferred in 10 mL Complete Media. Cells were then centrifuged at 1200 RPM for 5 min, resuspended in 40 mL of Complete Media, transferred in a 75 cm^2 cell culture flask and incubated overnight at 37° C. with 5% CO2. The next day, PBMCs were centrifuged, resuspended in 30 mL Assay Media (˜3.3×10^5 cells/mL) and distributed at 100 μL/well in a 96-well cell culture plate. 50 μl of Assay Media containing 300 ng/ml of LPS was then added to each well except for the untreated control wells (50 μl Assay Media without LPS). Cells were then primed with LPS for 4 h at 37° C. with 5% CO2. A concentration response curve (CRC) was prepared of 500× test compound in 100% dimethyl sulfoxide (DMSO). The CRC was then diluted 1:25 in Assay Media and then further diluted 1:5 in Assay Media resulting in a final 4× CRC in 0.8% DMSO/Assay Media. 50 μL/well of 4× test compound CRC or vehicle (0.8% DMSO/Assay Media) was then transferred into each well and subsequently incubated for 30 min at 37° C. with 5% CO2. Cells were stimulated by adding 4 μL of 500 μM Nigericin, for 1 h at 37° C. with 5% CO2 Plates were then centrifuged at 1200 RPM for 5 min and 100 μl of the media was transferred to a clean 96-well storage plate and stored at −80° C. until analyzed. Cytokine measurements were performed using the mesoscale platform. Compounds were added 30 minutes before priming the cells with LPS when TNFα was required to be quantified in the cytokine panel to confirm selectivity.
Human PBMC NLRP3 Assay: A represents an IC50 value <0.3 μM; B represents an IC50 value ≥0.3 μM and <0.5 μM; C represents an IC50 value ≥0.5 μM and <1.0 μM; D represents an IC50 value >1.0 μM and <10 μM; E represents an IC50 value >10 μM.

Setting [1] is: LPS priming 4 h, nigericin stimulation 1 h, class symbols.
Setting [2] is: LPS priming, nigericin stimulation, numeric values of Tables C1-C4.

Sequence of human NLRP3 (Q96P20 whole entry): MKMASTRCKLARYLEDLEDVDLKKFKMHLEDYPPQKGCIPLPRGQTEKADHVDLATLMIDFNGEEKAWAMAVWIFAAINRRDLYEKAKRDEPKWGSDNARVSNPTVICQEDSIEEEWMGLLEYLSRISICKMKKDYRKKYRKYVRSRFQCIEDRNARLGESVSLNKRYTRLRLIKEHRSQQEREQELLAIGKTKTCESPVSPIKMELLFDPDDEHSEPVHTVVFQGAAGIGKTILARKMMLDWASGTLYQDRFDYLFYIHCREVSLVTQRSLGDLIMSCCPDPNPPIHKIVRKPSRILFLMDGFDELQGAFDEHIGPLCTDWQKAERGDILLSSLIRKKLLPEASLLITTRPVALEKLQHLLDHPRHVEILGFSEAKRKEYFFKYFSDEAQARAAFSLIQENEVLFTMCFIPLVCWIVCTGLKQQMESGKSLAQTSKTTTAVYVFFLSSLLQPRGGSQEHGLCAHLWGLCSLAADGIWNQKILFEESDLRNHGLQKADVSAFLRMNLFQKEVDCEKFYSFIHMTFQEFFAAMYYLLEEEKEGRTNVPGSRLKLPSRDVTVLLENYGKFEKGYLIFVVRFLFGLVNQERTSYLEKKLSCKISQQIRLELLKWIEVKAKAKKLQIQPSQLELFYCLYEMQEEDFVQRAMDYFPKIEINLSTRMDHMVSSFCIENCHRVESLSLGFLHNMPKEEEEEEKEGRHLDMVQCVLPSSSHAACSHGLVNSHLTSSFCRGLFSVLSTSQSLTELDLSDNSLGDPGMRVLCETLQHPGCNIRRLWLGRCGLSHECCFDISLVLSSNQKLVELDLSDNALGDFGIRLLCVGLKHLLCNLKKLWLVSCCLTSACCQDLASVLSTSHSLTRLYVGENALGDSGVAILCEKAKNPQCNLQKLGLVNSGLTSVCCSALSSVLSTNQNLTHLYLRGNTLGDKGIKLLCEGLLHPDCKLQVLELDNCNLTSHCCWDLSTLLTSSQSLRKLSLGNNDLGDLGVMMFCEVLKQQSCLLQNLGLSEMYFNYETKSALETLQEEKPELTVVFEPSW

`C[C@@H](CNC(=O)CN1C(=O)C(C)(C)c2cc(Br)cc(O)c21)CC(=O)O` (single isomer, unassigned) [42A*] had a pIC50 under setting [1] greater than 6.52. Take `C[C@H](CNC(=O)CN1C(=O)C(C)(C)c2cc(Br)cc(O)c21)CC(=O)O` (single isomer, unassigned) [42B*]: the pIC50 under setting [1] is greater than 6.52. Still for that read-out and setting: the result for `CC1(C)C(=O)N(CC(=O)N[C@@H]2CCC[C@@H]2C(=O)O)c2ccc(Br)cc21` (single isomer, unassigned) [52A*] reads less than 5.00.

`O=C(O)CCCNC(=O)Cn1ccc2ccccc21` [COMPARATIVE EXAMPLE 1, 4-(2-(1H-indol-1-yl)acetamido)butanoic acid, reference compound] showed a negative-log IC50 (pIC50) under setting [2] of less than 4.00. For `O=C(O)CCCNC(=O)Cn1ccc2cc(Br)ccc21` [COMPARATIVE EXAMPLE 2, 4-(2-(5-bromo-1H-indol-1-yl)acetamido)butanoic acid, reference compound], the pIC50 under setting [2] was 5.14. Still for that read-out and setting: the result for `O=C(O)CCCNC(=O)CN1C(=O)Cc2cc(Br)ccc21` [COMPARATIVE EXAMPLE 3, 4-(2-(5-bromo-2-oxoindolin-1-yl)acetamido)butanoic acid, reference compound] reads 4.33. The same measure, in the same setting: under `O=C(O)CCCNC(=O)CN1C(=O)C(=O)c2cc(Br)ccc21` [COMPARATIVE EXAMPLE 4, 4-(2-(5-bromo-2,3-dioxoindolin-1-yl)acetamido)butanoic acid, reference compound] stands less than 4.00; under `O=C(O)CCNC(=O)Cn1ccc2cc(Br)ccc21` [COMPARATIVE EXAMPLE 5, 3-(2-(5-bromo-1H-indol-1-yl)acetamido)propanoic acid, reference compound], less than 4.00. On the same count and under the same terms, the result for `CC1(C)C(=O)N(CC(=O)NCCCc2nnc[nH]2)c2c(F)cc(C3CC3)c(F)c21` [COMPARATIVE EXAMPLE 6, N-(3-(4H-1,2,4-triazol-3-yl)propyl)-2-(5-cyclopropyl-4,7-difluoro-3,3-dimethyl-2-oxoindolin-1-yl)acetamide, reference compound] reads 6.03; that for `CC1(C)C(=O)N(CC(=O)NCCCc2cn[nH]n2)c2c(F)cc(C3CC3)c(F)c21` [COMPARATIVE EXAMPLE 7, N-(3-(2H-1,2,3-triazol-4-yl)propyl)-2-(5-cyclopropyl-4,7-difluoro-3,3-dimethyl-2-oxoindolin-1-yl)acetamide, reference compound], 6.17. In turn, `O=C(O)CCCNC(=O)CN1C(=O)C2(CCCC2)c2cc(Br)ccc21` [Compound 5, 4-(2-(5′-bromo-2′-oxospiro[cyclopentane-1,3′-indolin]-1′-yl)acetamido)butanoic acid] had a negative logarithm of the IC50 (pIC50) under setting [1] of less than 5.00. As for `O=C(O)CCCNC(=O)CN1C(=O)C2(CC2)c2cc(Br)ccc21` [Compound 6, 4-(2-(5′-bromo-2′-oxospiro[cyclopropane-1,3′-indolin]-1′-yl)acetamido)butanoic acid], the pIC50 runs as follows: under setting [1], 6.00 to 6.30; under setting [2], 6.24. `Cc1ccc2c(c1)C(C)(C)C(=O)N2CC(=O)NCCCC(=O)O` [Compound 7, 4-(2-(3,3,5-trimethyl-2-oxoindolin-1-yl)acetamido)butanoic acid] showed a pIC50 under setting [1] of 5.00 to 6.00.

`CC(C)(CCC(=O)O)NC(=O)CN1C(=O)C(C)(C)c2cc(C(F)(F)F)ccc21` [Compound 8, 4-(2-(3,3-dimethyl-2-oxo-5-(trifluoromethyl)indolin-1-yl)acetamido)-4-methylpentanoic acid] gave a pIC50 under setting [1] of 6.00 to 6.30 and a pIC50 under setting [2] of 6.16. In the same order, the values of `CC(C)(CCC(=O)O)NC(=O)CN1C(=O)C(C)(C)c2cc(C3CC3)ccc21` [Compound 9, 4-(2-(5-cyclopropyl-3,3-dimethyl-2-oxoindolin-1-yl)acetamido)-4-methylpentanoic acid] are 6.00 to 6.30 and 6.17. `CC(C)c1ccc2c(c1)C(C)(C)C(=O)N2CC(=O)NC(C)(C)CCC(=O)O` [Compound 10, 4-(2-(5-isopropyl-3,3-dimethyl-2-oxoindolin-1-yl)acetamido)-4-methylpentanoic acid] gave a pIC50 under setting [1] of 6.30 to 6.52. Turning to `CC(C)(CNC(=O)CN1C(=O)C(C)(C)c2cc(Br)ccc21)CC(=O)O` [Compound 13, 4-(2-(5-bromo-3,3-dimethyl-2-oxoindolin-1-yl)acetamido)-3,3-dimethylbutanoic acid], the pIC50 was greater than 6.52 under setting [1] and 6.96 under setting [2].

Under setting [1], `CC(C)(CCNC(=O)CN1C(=O)C(C)(C)c2cc(Br)ccc21)C(=O)O` [Compound 14, 4-(2-(5-bromo-3,3-dimethyl-2-oxoindolin-1-yl)acetamido)-2,2-dimethylbutanoic acid] gave a pIC50 of 5.00 to 6.00. Still for that read-out and setting: the result for `CC1(C)C(=O)N(C2(C(=O)NCCCC(=O)O)CC2)c2ccc(Br)cc21` [Compound 15, 4-(1-(5-bromo-3,3-dimethyl-2-oxoindolin-1-yl)cyclopropane-1-carboxamido)butanoic acid] reads less than 5.00. On to `CC1(C)C(=O)N(CC(=O)NCCCC(=O)O)c2cc(F)c(Br)cc21` [Compound 20, 4-(2-(5-bromo-6-fluoro-3,3-dimethyl-2-oxoindolin-1-yl)acetamido)butanoic acid], for which, under setting [1], the pIC50 was 5.00 to 6.00. Still for that read-out and setting: under `CC1(C)C(=O)N(CC(=O)NCCCC(=O)O)c2ccc(C3CCCC3)cc21` [Compound 25, 4-(2-(5-cyclopentyl-3,3-dimethyl-2-oxoindolin-1-yl)acetamido)butanoic acid] stands less than 5.00. `COc1cc(Br)cc2c1N(CC(=O)NCCCC(=O)O)C(=O)C2(C)C` [Compound 27, 4-(2-(5-bromo-7-methoxy-3,3-dimethyl-2-oxoindolin-1-yl)acetamido)butanoic acid] gave a pIC50 under setting [1] of less than 5.00. Molecule `CC1(C)C(=O)N(CC(=O)NCCCC(=O)O)c2cc(O)c(Br)cc21` [Compound 36, 4-(2-(5-bromo-6-hydroxy-3,3-dimethyl-2-oxoindolin-1-yl)acetamido)butanoic acid] gave a pIC50 under setting [1] of less than 5.00. The same measure, in the same setting: under `C[C@H](CCC(=O)O)NC(=O)CN1C(=O)C(C)(C)c2cc(Br)cc(O)c21` [Compound 41A, (R)-4-(2-(5-bromo-7-hydroxy-3,3-dimethyl-2-oxoindolin-1-yl)acetamido)pentanoic acid] stands greater than 6.52; under `CC1(C)C(=O)N(CC(=O)NC2(CCC(=O)O)CC2)c2c(O)cc(Br)cc21` [Compound 44, 3-(1-(2-(5-bromo-7-hydroxy-3,3-dimethyl-2-oxoindolin-1-yl)acetamido)cyclopropyl)propanoic acid], greater than 6.52. On the same count and under the same terms, under `CC1(C)C(=O)N(CC(=O)NCc2ccccc2C(=O)O)c2ccc(Br)cc21` [Compound 49, 2-((2-(5-bromo-3,3-dimethyl-2-oxoindolin-1-yl)acetamido)methyl)benzoic acid] stands less than 5.00; under `CC1(C)C(=O)N(CC(=O)NCCCC(=O)O)c2c(C(F)(F)F)cc(Br)cc21` [Compound 50, 4-(2-(5-bromo-3,3-dimethyl-2-oxo-7-(trifluoromethyl)indolin-1-yl)acetamido)butanoic acid], less than 5.00.

In the case of `O=C(O)CCCNC(=O)CN1C(=O)C(F)(F)c2cc(Br)ccc21` [Compound 51, 4-(2-(5-bromo-3,3-difluoro-2-oxoindolin-1-yl)acetamido)butanoic acid], the pIC50 is 6.30 to 6.52 under setting [1] and 6.39 under setting [2].
